≈ marks a conversion by molar mass, not a printed value. Where two headings read alike, the source gives them in different places. Peptide text beside a SMILES is read from it.
Experiments:
[1] = system: S. aureus USA300; test: microbe, parasite or virus in culture; assay type: cell-based, Staphylococcus aureus
Source text: The bacterial strains used include the Gram-positive strains Staphylococcus aureus USA300 LAC, S. epidermidis 1457, and Bacillus subtilis 168, as well as the Gram-negative isolates Escherichia coli K12 and Acinetobacter baumannii B2367-12. Additional, drug resistance strains include Gram-positive Enterococcus faecium V286-17 (VRE) and S. aureus M838-17 (MRSA) and Gram-negative E. coli E423-17, E. coli E416-17 (ampC), and P. aeruginosa E411-17. Bacteria were cultivated in tryptic soy broth (TSB) (BD Bioscience, MD).
(§1) The antibacterial activity of peptides was evaluated using a standard broth microdilution protocol with minor modifications as described (Mishra, et al. (2012) J. Am. Chem. Soc., 134:12426-12429). In brief, logarithmic phase bacterial cultures (i.e., optical density at 600 nm≈0.5) were diluted to OD600 0.001 and partitioned into a 96-well polystyrene microplate at 90 μL per well. After treatment with 10 μL of peptide solutions two fold diluted to various concentrations, microplates were incubated at 37° C. overnight and read on a ChroMate® 4300 Microplate Reader at 630 nm (GMI, Ramsey, MN). […] To study the influence of medium conditions on the antimicrobial activity of peptides against S. aureus USA300, up to 200 mM sodium chloride (NaCl), 2 mM of calcium chloride, 5-10% of human serum, mouse plasma, fluid, or supernatants of tissue homogenates were included into the assays.
(§2) The bacterial strains used include the Gram-positive bacteria methicillin-resistant Staphylococcus aureus USA300, Enterococcus faecium V286-17 (VRE), S. aureus M838-17 (MRSA) and Gram-negative bacteria E. coli E423-17, E416-7 (ampC), P. aeruginosa E411-17, PA01, K. pneumoniae E406-17, ATCC13883, and A. baumannii B26-16. Bacteria were cultivated in tryptic soy broth (TSB) from BD Bioscience.
(§3) The antibacterial activity of peptides was evaluated using a standard broth microdilution protocol with minor modifications (Mishra, et al. (2017) Acta Biomater., 49:316-328). In brief, logarithmic phase bacterial cultures (i.e., optical density at 600 nm≈0.5) were diluted to 0.001 OD and aliquoted 90 μL per well into a 96-well polystyrene microplate. Added 10 μL peptides per well with various concentrations, plates were incubated at 37° C., overnight. Post incubation the plates are read at 630 nm using a ChroMate® Microplate Reader (GMI). […] To study the influence of medium conditions on the antimicrobial activity of peptides against S. aureus USA300 at different pHs (6.8, 7.2, and 8.0), 150 mM sodium chloride (NaCl), 5-10% of human serum, mouse plasma, and peritoneal fluid were included into the assays.

[2] = system: E. coli ATCC 25922; assay type: cell-based, Escherichia coli
Protocol: as §1, §3

[3] = system: K. pneumoniae ATCC 13883; assay type: cell-based, Klebsiella pneumoniae; settings: ATCC 13883
Protocol: as §1, §2, §3

[4] = system: P. aeruginosa PAO1; assay type: cell-based, Pseudomonas aeruginosa
Protocol: as §1, §2, §3

[5] = system: human red blood cells (hRBCs); test: Hemolytic assay; assay type: cell-based
Protocol: Briefly, human red blood cells (hRBCs) were washed three times with phosphate buffer saline (PBS) and diluted to a 2% solution (v/v). After peptide treatment, incubation at 37° C. for one hour, and centrifugation at 5000 rpm for 10 minutes, aliquots of the supernatant were carefully transferred to a fresh 96-well microplate. The amount of hemoglobin released was measured at 545 nm. The percent lysis was calculated by assuming 100% release when human blood cells were treated with 2% Triton™ X-100, and 0% release when incubated with PBS buffer. The peptide concentration that caused 50% lysis of hRBCs is defined as HL50. The cell selectivity index (CSI) was calculated as the ratio between HL50 and MIC of the corresponding peptide against a select pathogenic species.
Hemolytic assays of peptides were performed as described (Mishra, et al. (2017) Acta Biomater., 49:316-328). Briefly, human red blood cells (hRBCs) obtained from UNMC Blood Bank. The blood washed 3× with isotonic saline (0.9% NaCl) and diluted to 2% blood cells (v/v). Peptide horine and verine at various concentrations were added into the 2% blood cells and incubated at 37° C. for 1 hour. Post incubation the plates were spun at 2000 rpm for 10 minutes, aliquots of the supernatant were carefully transferred to a fresh 96-well microplate. The amount of cells lysed is proportional to the hemoglobin released and measured at 545 nm using a ChroMate® microplate reader. The percent lysis was calculated by assuming 100% release when human blood cells were treated with 1% Triton™ X-100, and 0% release when incubated with PBS. The peptide concentration that caused 50% lysis of hRBCs is defined as HL50.

| SMILES | MIC S. aureus USA 300 ([1]; USA300) [µM] | MIC E. coli ATCC 25922 ([2]; ATCC 25922) [µM] | MIC K. pneumoniae ATCC 13883 [3] [µM] | MIC P. aeruginosa PAO1 ([4]; PAO1) [µM] | HL50 [5] [µM] | also measured |
| --- | --- | --- | --- | --- | --- | --- |
| CC[C@H](C)[C@H](NC(=O)[C@H](CCCCN)NC(=O)[C@H](CCCNC(=N)N)NC(=O)[C@H](CC(C)C)NC(=O)[C@H](Cc1c[nH]c2ccccc12)NC(=O)[C@@H](N)Cc1c[nH]c2ccccc12)C(=O)N[C@@H](Cc1c[nH]c2ccccc12)C(=O)N[C@@H](Cc1c[nH]c2ccccc12)C(=O)O [WW292, WWLRKIWW] (H-WWLRKIWW-OH; N-terminus and C-terminus assumed) | 6.2 (≈ 7.9 µg/mL) | 25 (≈ 31.8 µg/mL) | >50 | – | – | – |
| CC[C@H](C)[C@H](NC(=O)[C@H](CCCNC(=N)N)NC(=O)[C@H](CCCNC(=N)N)NC(=O)[C@H](CC(C)C)NC(=O)[C@H](Cc1c[nH]c2ccccc12)NC(=O)[C@H](Cc1c[nH]c2ccccc12)NC(=O)[C@@H](N)CCCNC(=N)N)C(=O)N[C@@H](Cc1c[nH]c2ccccc12)C(N)=O [WW300, RWWLRRIW] (H-RWWLRRIW-NH2; N-terminus and C-terminus assumed) | – | – | – | 12.5 (≈ 15.9 µg/mL) | >200 | MIC K. pneumonia ATCC 13883 [3]: >50 µM |
| CC[C@H](C)[C@H](NC(=O)[C@H](CCCNC(=N)N)NC(=O)[C@H](CCCNC(=N)N)NC(=O)[C@H](CC(C)C)NC(=O)[C@H](Cc1c[nH]c2ccccc12)NC(=O)[C@H](CCCNC(=N)N)NC(=O)[C@@H](N)Cc1c[nH]c2ccccc12)C(=O)N[C@@H](Cc1c[nH]c2ccccc12)C(N)=O [WW301, WRWLRRIW] (H-WRWLRRIW-NH2; N-terminus and C-terminus assumed) | – | – | – | 6.2 (≈ 7.88 µg/mL) | 100 | MIC K. pneumonia ATCC 13883 [3]: 25 µM (≈ 31.8 µg/mL) |
| CC[C@H](C)[C@H](NC(=O)[C@@H](N)CCCCN)C(=O)N[C@@H](Cc1c[nH]c2ccccc12)C(=O)N[C@@H](Cc1c[nH]c2ccccc12)C(=O)N[C@@H](Cc1c[nH]c2ccccc12)C(=O)N[C@@H](Cc1c[nH]c2ccccc12)C(=O)N[C@@H](CC(C)C)C(=O)N[C@@H](CCCNC(=N)N)C(=O)O [WW296, KIWWWWLR] (H-KIWWWWLR-OH; N-terminus and C-terminus assumed) | 3.1 (≈ 3.95 µg/mL) | 6.2 to 12.5 | 12.5 (≈ 15.9 µg/mL) | – | – | – |
| CC(C)C[C@H](NC(=O)[C@H](CC(C)C)NC(=O)[C@H](CCCCN)NC(=O)CNC(=O)[C@H](CC(C)C)NC(=O)[C@H](CC(C)C)NC(=O)[C@H](CO)NC(=O)[C@H](CC(C)C)NC(=O)[C@H](CO)NC(=O)[C@H](CC(C)C)NC(=O)[C@H](CC(C)C)NC(=O)CN)C(N)=O [DFT523, GLLSL-SLLGKLL] (H-GLLSLSLLGKLL-NH2; N-terminus and C-terminus assumed) | – | – | – | – | – | MIC against S. aureus ([1]; Example 1): 12.5 to 25 µM; MIC S. aureus USA 300 ([1]; Table 3, quantified by UV): 12.5 µM (≈ 15.3 µg/mL); MIC P. aeruginosa PAO1 ([4]; Table 3, quantified by UV): >25 µM; MIC against E. coli [2]: 12.5 to 25 µM; MIC E. coli ATCC 25922 ([2]; Table 3, quantified by UV): 25 µM (≈ 30.6 µg/mL); HL50 ([5]; Table 3, hRBCs 2% v/v): >50 µM |
| CC[C@H](C)[C@H](NC(=O)[C@H](CCCCN)NC(=O)[C@H](CCCNC(=N)N)NC(=O)[C@H](CC(C)C)NC(=O)[C@@H](N)Cc1c[nH]c2ccccc12)C(=O)N[C@@H](Cc1c[nH]c2ccccc12)C(=O)N[C@@H](Cc1c[nH]c2ccccc12)C(=O)N[C@@H](Cc1c[nH]c2ccccc12)C(=O)O [WW293, WLRKIWWW] (H-WLRKIWWW-OH; N-terminus and C-terminus assumed) | 3.1 to 6.2 | 12.5 to 25 | 25 (≈ 31.8 µg/mL) | – | – | – |
| CC[C@H](C)[C@H](NC(=O)[C@H](CCCCN)NC(=O)[C@H](CCCNC(=N)N)NC(=O)[C@H](CC(C)C)NC(=O)[C@H](Cc1c[nH]c2ccccc12)NC(=O)[C@H](Cc1c[nH]c2ccccc12)NC(=O)[C@H](Cc1c[nH]c2ccccc12)NC(=O)[C@@H](N)Cc1c[nH]c2ccccc12)C(=O)O [WW298, WWWWLRKI] (H-WWWWLRKI-OH; N-terminus and C-terminus assumed) | 1.5 to 3.1 | 12.5 (≈ 15.9 µg/mL) | 6.2 to 12.5 | – | – | – |
| CC[C@H](C)[C@H](NC(=O)[C@H](CCCCN)NC(=O)[C@H](CCCNC(=N)N)NC(=O)[C@@H](N)CC(C)C)C(=O)N[C@@H](Cc1c[nH]c2ccccc12)C(=O)N[C@@H](Cc1c[nH]c2ccccc12)C(=O)N[C@@H](Cc1c[nH]c2ccccc12)C(=O)N[C@@H](Cc1c[nH]c2ccccc12)C(=O)O [WW294, LRKIWWWW] (H-LRKIWWWW-OH; N-terminus and C-terminus assumed) | 3.1 to 6.2 | 12.5 (≈ 15.9 µg/mL) | 6.2 to 12.5 | – | – | – |
| CC[C@H](C)[C@H](NC(=O)[C@H](CCCNC(=N)N)NC(=O)[C@H](CCCNC(=N)N)NC(=O)[C@H](CC(C)C)NC(=O)[C@H](Cc1c[nH]c2ccccc12)NC(=O)[C@H](Cc1c[nH]c2ccccc12)NC(=O)[C@@H](N)Cc1c[nH]c2ccccc12)C(=O)N[C@@H](CCCNC(=N)N)C(N)=O [WW305, WWWLRRIR] (H-WWWLRRIR-NH2; N-terminus and C-terminus assumed) | – | – | – | 12.5 (≈ 15.9 µg/mL) | >200 | MIC K. pneumonia ATCC 13883 [3]: >25 µM |
| CC(C)C[C@H](NC(=O)[C@H](CC(C)C)NC(=O)[C@H](CCCCN)NC(=O)CNC(=O)[C@H](C)NC(=O)[C@H](C)NC(=O)[C@H](CCCCN)NC(=O)[C@H](C)NC(=O)[C@H](C)NC(=O)[C@H](CO)NC(=O)[C@H](CC(C)C)NC(=O)[C@H](CC(C)C)NC(=O)CN)C(N)=O [DFT522, GLLSAAKAAGKLL] (H-GLLSAAKAAGKLL-NH2; N-terminus assumed) | >25 | >25 | – | >25 | 50 | Antimicrobial activity ([1]; at 25 μM): inactive |
| CC(C)C[C@H](NC(=O)[C@H](CC(C)C)NC(=O)[C@H](CCCCN)NC(=O)CNC(=O)[C@H](C)NC(=O)[C@H](C)NC(=O)[C@H](CCCCN)NC(=O)[C@H](CC(C)C)NC(=O)[C@H](C)NC(=O)[C@H](CO)NC(=O)[C@H](CC(C)C)NC(=O)[C@H](CC(C)C)NC(=O)CN)C(N)=O [DFT521, GLLSALKAAGKLL] (H-GLLSALKAAGKLL-NH2; N-terminus assumed) | 12.5 (≈ 15.7 µg/mL) | 12.5 (≈ 15.7 µg/mL) | – | >25 | >50 | MIC against S. aureus ([1]; USA300): 12.5 to 25 µM |

Reference: US12173088B2, “Anti-microbial peptides” (priority 2018, dated 2024)
